Measurements reported in ChEMBL document CHEMBL1151146, “Starfish Saponins, Part 43. Structures of Two New Sulfated Steroidal Fucofuranosides (Imbricatosides A and B) and Six New Polyhydroxysteroids from the Starfish Dermasterias imbricata” (J Nat Prod, 1990).
One block for each molecule: values may come before it. Calls of active or inactive are those of the source. No cut-off for these calls is given here.

Columns and labels:
Cladosporium cucumerinum [1] = experiment: Antimicrobial activity against Cladosporium cucumerinum at <1 ug by TLC-based direct bioautography; assay type: functional, organism-based
[2] = Inhibition of cell division of fertilized sea urchin eggs; parameters: species or system Egg; conditions: echinoidea
Cladosporium cucumerinum [3] = experiment: Antimicrobial activity against Cladosporium cucumerinum at 5 ug by TLC-based direct bioautography; assay type: functional, organism-based
Cladosporium cucumerinum [4] = experiment: Antimicrobial activity against Cladosporium cucumerinum at 3 ug by TLC-based direct bioautography; assay type: functional, organism-based

Activity [2]: Active
SMILES: CC(C)[C@@H](O)/C=C/[C@@H](C)[C@H]1C[C@@H](O)[C@@H]2[C@]1(C)CC[C@@H]1[C@@]3(C)CC[C@H](O)C[C@@H]3[C@@H](O)C[C@]12O
Activity (Cladosporium cucumerinum [1]): Active

SMILES: C[C@H](CO)C/C=C/[C@@H](C)[C@H]1C[C@@H](O)[C@@H]2[C@]1(C)CC[C@@H]1[C@@]3(C)CC[C@H](O)C[C@@H]3[C@@H](O)C[C@]12O
Activity (Cladosporium cucumerinum [3]): Active

SMILES: CC(C)[C@@H](O)CC[C@@H](C)[C@H]1C[C@@H](O)[C@@H]2[C@]1(C)CC[C@@H]1[C@@]3(C)CC[C@H](O)C[C@@H]3[C@@H](O)C[C@]12O
Activity (Cladosporium cucumerinum [4]): Active
